Source: US4966891A, “Fluorocytidine derivatives” (priority 1987, dated 1990)

Columns and labels:
Lewis lung carcinoma = settings: mouse, in vivo, po
Description: Mice were inoculated subcutaneously with Lewis lung carcinoma (10^6 cells) on day 0.
The compounds were administered daily for 14 times from day 1 by the p.o. route. The effective dose (ED50) at which tumor growth was inhibited by 50%, and toxic doses were determined.

in vivo = settings: mouse, po
Sarcoma 180 [1] = assay: Comparative antitumor testing against Sarcoma 180; type: in vivo, murine / mice; settings: p.o. daily × 7, Day 14
From the text: (§1) Mice were inoculated subcutaneously with Sarcoma 180, Meth A fibrosarcoma and UV 2237 fibrosarcoma, respectively at Day 0. The mice were then orally administered with the compounds daily for 7 times from Day 1. The efficacy
(§2) was expressed as therapeutic indices (EDmax /ED50) measured at Day 14 after the tumor inoculation, where EDmax is a dose showing maximum inhibition of tumor growth.

Meth A fibrosarcoma [2] = assay: Comparative antitumor testing against Meth A fibrosarcoma; type: in vivo, murine / mice; settings: p.o. daily × 7, Day 14
From the text: as §1, §2

Sarcoma 180 [3] = assay: Antitumor testing against Sarcoma 180 (oral, s.c. implanted); type: in vivo, mice; settings: Mus musculus, 336 h, day 14, read-out: Inhibition of tumor growth; for inhibition in vivo at 1100 µmol/kg: 1.1 mmole/kg/day × 7, p.o.; for inhibition in vivo at 2200 µmol/kg: 2.2 mmole/kg/day × 7, p.o.; for inhibition in vivo at 1500 µmol/kg: 1.5 mmole/kg/day × 7, p.o.
Description: (§3) Sarcoma 180 cells (2×10^6 cells) were implanted subcutaneously into mice (20-22 g) on day 0. The compounds of the present invention were administered daily from day 1 through 7 orally. The animals were sacrificed on day 14 and tumors were excised and weighed. The percent inhibition of tumor growth given in Table 1 below was calculated from the formula:
(§4) T=weight of the tumors from the treated group, C=weight of the tumors from the control group.

Meth A fibrosarcoma [4] = assay: Antitumor testing against Meth A fibrosarcoma (oral, s.c. implanted); type: in vivo, mice; settings: Mus musculus, read-out: Inhibition of tumor growth; for inhibition in vivo at 1500 µmol/kg: 1.5 mmole/kg/day × 7, p.o.; for inhibition in vivo at 3000 µmol/kg: 3.0 mmole/kg/day × 7, p.o.
Description: as §3, §4
(§5) Meth A fibrosarcoma cells (2×10^5 cells) were implanted subcutaneously into mice (21-22 g). The testing against Meth A fibrosarcoma and the calculation of the percent inhibition of tumor growth were effected according to a manner analogous to that of the testing against Sarcoma 180.

UV 2237 fibrosarcoma = assay: Comparative antitumor testing against UV 2237 fibrosarcoma; type: in vivo, murine / mice; settings: p.o. daily × 7, Day 14
From the text: as §1, §2

[5] = Fecal observation on Day 8 and toxicity in the comparative Meth A study; settings: for diarrhea: mouse, in vivo
Description: (§6) The comparative study on antitumor activity of a representative compound (Example 3) of the present invention with 5'-deoxy-5-fluorouridine was performed according to a manner analogous to that of the antitumor testing against Meth A fibrosarcoma.

Meth A fibrosarcoma [6] = assay: Comparative study on antitumor activity against Meth A fibrosarcoma with 5'-deoxy-5-fluorouridine; type: in vivo, mice
Description: as §5, §6

[7] = words, general knowledge; cited from earlier work

For `CCCC(=O)Nc1nc(=O)n([C@@H]2O[C@H](C)[C@@H](O)[C@H]2O)cc1F` [Example 1, N^4-butyryl-5'-deoxy-5-fluorocytidine], which “Therapeutic index (toxic dose/ED50): 50% Thymus Shrinkage (C)” value (Lewis lung carcinoma) is on record?
The value was 11.3.

What about the “Therapeutic index (toxic dose/ED50): 50% reduction No. of bone marrow cells (D)” value (Lewis lung carcinoma) of the same molecule?
Its value is 10.7.

What about the “Therapeutic index (toxic dose/ED50): Max. Dose causing no diarrhea (A)” value (Lewis lung carcinoma) of the same molecule?
Its value is over 13.

And the LD50 (in vivo)?
The LD50 was over 2000 mg/kg.

What about the “Therapeutic index (EDmax/ED50), S180” value (Sarcoma 180 [1]) of the same molecule?
The value was 2.3.

And the “Therapeutic index (EDmax/ED50), Meth A” value (Meth A fibrosarcoma [2])?
Its value is 2.0.

What about the inhibition in vivo at 1100 µmol/kg (Sarcoma 180 [3]) of the same molecule?
Its inhibition in vivo at 1100 µmol/kg is 56%.

And the inhibition in vivo at 2200 µmol/kg (Sarcoma 180 [3])?
Its inhibition in vivo at 2200 µmol/kg is 83%.

And the inhibition in vivo at 1500 µmol/kg (Meth A fibrosarcoma [4])?
The inhibition in vivo at 1500 µmol/kg was 50%.

What about the inhibition in vivo at 3000 µmol/kg (Meth A fibrosarcoma [4]) of the same molecule?
Its inhibition in vivo at 3000 µmol/kg is 72%.

And the “Therapeutic index (EDmax/ED50), UV 2237” value (UV 2237 fibrosarcoma)?
The value was 4.8.

For `CCCCCCCC(=O)Nc1nc(=O)n([C@@H]2O[C@H](C)[C@@H](O)[C@H]2O)cc1F` [Example 5, 5'-deoxy-5-fluoro-N^4-octanoylcytidine], which LD50 (in vivo) is on record?
Its LD50 is over 2000 mg/kg.

What about the inhibition in vivo at 1100 µmol/kg (Sarcoma 180 [3]) of the same molecule?
Its inhibition in vivo at 1100 µmol/kg is 62%.

What about the inhibition in vivo at 2200 µmol/kg (Sarcoma 180 [3]) of the same molecule?
Its inhibition in vivo at 2200 µmol/kg is 82%.

With `C[C@H]1O[C@@H](n2cc(F)c(=O)[nH]c2=O)[C@H](O)[C@@H]1O` [5'-deoxy-5-fluorouridine, reference compound] as the molecule, how does the “Therapeutic index (toxic dose/ED50): 50% Thymus Shrinkage (C)” value (Lewis lung carcinoma) read?
The value was 5-10.

And the “Therapeutic index (toxic dose/ED50): 50% reduction No. of bone marrow cells (D)” value (Lewis lung carcinoma)?
The value was 5-10.

And the “Therapeutic index (toxic dose/ED50): Max. Dose causing no diarrhea (A)” value (Lewis lung carcinoma)?
The value was 5.

What about the “Therapeutic index (EDmax/ED50), S180” value (Sarcoma 180 [1]) of the same molecule?
The value was 2.4.

And the “Therapeutic index (EDmax/ED50), Meth A” value (Meth A fibrosarcoma [2])?
Its value is 1.1.

What about the diarrhea [5] of the same molecule?
The diarrhea was “diarrhea, which is the dose limiting factor”.

What about the “Therapeutic index (EDmax/ED50), UV 2237” value (UV 2237 fibrosarcoma) of the same molecule?
The value was 1.6.

And the “Inhibition of tumor growth” value (Meth A fibrosarcoma [6]; 0.4 mmole/kg/day × 7)?
The value was 34%.

What about the “Inhibition of tumor growth” value (Meth A fibrosarcoma [6]; 0.8 mmole/kg/day × 7) of the same molecule?
The value was 31%.

What about the “Inhibition of tumor growth” value (Meth A fibrosarcoma [6]; 1.5 mmole/kg/day × 7) of the same molecule?
The value was 66%.

And the “Inhibition of tumor growth” value (Meth A fibrosarcoma [6]; 3.0 mmole/kg/day × 7)?
The value was “toxic”.

Which “major and dose limiting toxicities” value [7] does the source give for `O=c1[nH]cc(F)c(=O)[nH]1` [5-fluorouracil] here?
The value was “cause intestinal toxicities and immunosuppressive toxicities”.

Which results are given for `COc1cc(C(=O)Nc2nc(=O)n([C@@H]3O[C@H](C)[C@@H](O)[C@H]3O)cc2F)cc(OC)c1OC` [Example 3, 5'-deoxy-5-fluoro-N^4-(3,4,5-trimethoxybenzoyl)cytidine]?
diarrhea [5]: did not cause diarrhea; toxicity compared with 5'-deoxy-5-fluorouridine ([5]; words): less toxic than 5'-deoxy-5-fluorouridine; inhibition in vivo at 1500 µmol/kg (Meth A fibrosarcoma [4]): 86%; inhibition in vivo at 3000 µmol/kg (Meth A fibrosarcoma [4]): 79%; Inhibition of tumor growth (Meth A fibrosarcoma [6]; 0.4 mmole/kg/day × 7): -27%; Inhibition of tumor growth (Meth A fibrosarcoma [6]; 0.8 mmole/kg/day × 7): 20%; Inhibition of tumor growth (Meth A fibrosarcoma [6]; 1.5 mmole/kg/day × 7): 86%; Inhibition of tumor growth (Meth A fibrosarcoma [6]; 3.0 mmole/kg/day × 7): 79%; antitumor activity compared with 5'-deoxy-5-fluorouridine (Meth A fibrosarcoma [6]; words): more potent in the antitumor activity

Which LD50 (in vivo) does the source give for `CC(C)C(=O)Nc1nc(=O)n([C@@H]2O[C@H](C)[C@@H](O)[C@H]2O)cc1F` [Example 9, 5'-deoxy-5-fluoro-N^4-isobutyrylcytidine] here?
The LD50 was over 2000 mg/kg.

What about the inhibition in vivo at 1400 µmol/kg (Sarcoma 180 [3]; 1.4 mmole/kg/day × 7, p.o.) of the same molecule?
Its inhibition in vivo at 1400 µmol/kg is 76%.

What about the inhibition in vivo at 2700 µmol/kg (Sarcoma 180 [3]; 2.7 mmole/kg/day × 7, p.o.) of the same molecule?
The inhibition in vivo at 2700 µmol/kg was 96%.

Which LD50 (in vivo) does the source give for `C[C@H]1O[C@@H](n2cc(F)c(NC(=O)c3cccnc3)nc2=O)[C@H](O)[C@@H]1O` [Example 34] here?
Its LD50 is over 2000 mg/kg.

What about the inhibition in vivo at 1300 µmol/kg (Meth A fibrosarcoma [4]; 1.3 mmole/kg/day × 7, p.o.) of the same molecule?
Its inhibition in vivo at 1300 µmol/kg is 75%.

And the inhibition in vivo at 2600 µmol/kg (Meth A fibrosarcoma [4]; 2.6 mmole/kg/day × 7, p.o.)?
The inhibition in vivo at 2600 µmol/kg was 92%.

For `C[C@H]1O[C@@H](n2cc(F)c(N)nc2=O)[C@H](O)[C@@H]1O` [5'-deoxy-5-fluorocytidine], which “Therapeutic index (EDmax/ED50), S180” value (Sarcoma 180 [1]) is on record?
The value was 2.0.

And the “Therapeutic index (EDmax/ED50), Meth A” value (Meth A fibrosarcoma [2])?
The value was 1.2.

And the “Therapeutic index (EDmax/ED50), UV 2237” value (UV 2237 fibrosarcoma)?
Its value is 1.0.

What does the source list for `COc1ccc(C(=O)Nc2nc(=O)n([C@@H]3O[C@H](C)[C@@H](O)[C@H]3O)cc2F)cc1` [Example 24]?
LD50 (in vivo): > 2000 mg/kg; inhibition in vivo at 1500 µmol/kg (Sarcoma 180 [3]): 63%; inhibition in vivo at 3000 µmol/kg (Sarcoma 180 [3]; 3.0 mmole/kg/day × 7, p.o.): 94%

What does the source list for `C[C@H]1O[C@@H](n2cc(F)c(NC(=O)OCc3ccccc3)nc2=O)[C@H](O)[C@@H]1O` [Example 42, N^4-(benzyloxycarbonyl)-5'-deoxy-5-fluorocytidine]?
inhibition in vivo at 500 µmol/kg (Sarcoma 180 [3]; 0.5 mmole/kg/day × 7, p.o.): 0%; inhibition in vivo at 1500 µmol/kg (Sarcoma 180 [3]): 36%

For `CC(C)CC(=O)Nc1nc(=O)n([C@@H]2O[C@H](C)[C@@H](O)[C@H]2O)cc1F` [Example 47, 5'-deoxy-5-fluoro-N^4-isovalerylcytidine], which LD50 (in vivo) is on record?
The LD50 was over 2000 mg/kg.

What about the inhibition in vivo at 1500 µmol/kg (Meth A fibrosarcoma [4]) of the same molecule?
Its inhibition in vivo at 1500 µmol/kg is 29%.

And the inhibition in vivo at 3000 µmol/kg (Meth A fibrosarcoma [4])?
The inhibition in vivo at 3000 µmol/kg was 59%.

Which LD50 (in vivo) does the source give for `CCCCC(=O)Nc1nc(=O)n([C@@H]2O[C@H](C)[C@@H](O)[C@H]2O)cc1F` [Example 46, 5'-deoxy-5-fluoro-N^4-valerylcytidine] here?
Its LD50 is over 2000 mg/kg.

And the inhibition in vivo at 1500 µmol/kg (Meth A fibrosarcoma [4])?
Its inhibition in vivo at 1500 µmol/kg is 51%.

What about the inhibition in vivo at 3000 µmol/kg (Meth A fibrosarcoma [4]) of the same molecule?
Its inhibition in vivo at 3000 µmol/kg is 66%.
